In PubChem BioAssay (NCI):
Several values for one entry are separate records, joined by “and”; a condition that tells them apart may be missing. Identical values can stand only once.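 How tested: cells in 96-well plates exposed to compound for 48 hours at five concentrations. The concentration for 50% growth inhibition is given as GI50. TGI marks complete inhibition of growth.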 Where a SMILES comes first, the peptide text is derived from it. [ ]: non-standard residue; d: D form. Orn = NCCC[CH](N)C(=O)O

What was measured:
Test in all cases: NCI tumour cell line growth inhibition, 48 h
UO-31 renal = tested on: UO-31 renal
KM12 colon = tested on: KM12 colon
A549 NSCLC = tested on: A549 NSCLC
TK-10 renal = tested on: TK-10 renal
SW-620 colon = tested on: SW-620 colon
IGROV1 ovarian = tested on: IGROV1 ovarian
A498 renal = tested on: A498 renal
RPMI-8226 leukemia = tested on: RPMI-8226 leukemia
SF-539 CNS = tested on: SF-539 CNS
SK-MEL-2 melanoma = tested on: SK-MEL-2 melanoma

Compound	GI50 (UO-31 renal)	TGI (UO-31 renal)	GI50 (KM12 colon)	TGI (KM12 colon)	GI50 (A549 NSCLC)	TGI (A549 NSCLC)	GI50 (TK-10 renal)	TGI (TK-10 renal)	GI50 (SW-620 colon)	TGI (SW-620 colon)	GI50 (IGROV1 ovarian)	TGI (IGROV1 ovarian)	GI50 (A498 renal)	TGI (A498 renal)	GI50 (RPMI-8226 leukemia)	TGI (RPMI-8226 leukemia)	GI50 (SF-539 CNS)	TGI (SF-539 CNS)	GI50 (SK-MEL-2 melanoma)	TGI (SK-MEL-2 melanoma)
COc1ccc2c(c1)N(CCO)C1=C(C(=O)OC1)C2c1cccc(Br)c1 (stereo not drawn)	0.0776 µM	> 85.3 µM	0.0489 µM	5.05 µM	0.113 µM	19.6 µM	0.349 µM	83.6 µM	0.046 µM	> 100 µM	0.088 µM	> 100 µM	0.0293 µM	1.21 µM	0.184 µM	28.4 µM	0.0498 µM	0.859 µM	0.0595 µM	3.24 µM
COC(=O)/C(Cl)=C1/CC1COCc1ccccc1 (stereo not drawn)	–	67.5 µM	–	77.4 µM	–	> 100 µM	–	> 100 µM	–	45.1 µM	–	> 100 µM	–	96.9 µM	–	58.3 µM	–	49.8 µM	–	96.9 µM
NC(CCCNCc1ccccc1O)C(=O)O (stereo not drawn)	–	> 100 µM	–	> 100 µM	–	> 100 µM	–	> 100 µM	–	> 100 µM	–	> 100 µM	–	> 100 µM	–	> 100 µM	–	> 100 µM	–	> 100 µM
CCOC(=O)c1c2c(n3cccc(F)c13)C(=O)c1ncccc1C2=O	0.0189 µM	1.42 µM	0.539 µM	18.9 µM	0.217 µM	1.67 µM	0.216 µM	27.2 µM	0.151 µM	11.3 µM	1.6 µM	24.9 µM	–	21.7 µM	1.91 µM	37.3 µM	0.157 µM	1.35 µM	4.81 µM	73.7 µM
O=C(Nc1ncc(Cc2ccc(Cl)cc2)s1)c1ccc2c(c1)OCCO2	0.0834 µM	> 100 µM	0.0414 µM	> 58 µM	0.0696 µM	> 100 µM	0.245 µM	> 32.5 µM	0.04 µM	> 100 µM	0.126 µM	> 100 µM	0.0187 µM	0.0809 µM	0.0526 µM	> 100 µM	0.0469 µM	0.571 µM	0.343 µM	> 69.4 µM
CC(=O)O[C@@H]1CC(=O)O[C@@H]2C[C@@H](CC/C(Cl)=C/C/C=C\1C)O[C@@H]2CO	> 25 µM	> 25 µM	–	> 6.4 µM	> 25 µM	> 25 µM	> 25 µM	> 25 µM	> 25 µM	> 25 µM	> 25 µM	> 25 µM	20.1 µM	> 25 µM	> 25 µM	> 25 µM	> 25 µM	> 25 µM	> 25 µM	> 25 µM
O=S(=O)(c1ccccc1)C1CN(Cc2ccccc2)CCN(Cc2ccccc2)C1	–	77.3 µM	–	> 100 µM	–	> 100 µM	–	> 100 µM	–	> 78.7 µM	–	> 100 µM	–	> 100 µM	–	53.4 µM	–	> 100 µM	–	> 100 µM
COc1ccc2c(c1)CC[C@@H]1[C@@H]2CC[C@]2(C)c3c(cc(C(=O)c4ccccc4)c4sccc34)C[C@@H]12	> 100 µM	> 100 µM	> 100 µM	> 100 µM	> 100 µM	> 100 µM	> 100 µM	> 100 µM	> 100 µM	> 100 µM	> 100 µM	> 100 µM	> 100 µM	> 100 µM	> 100 µM	> 100 µM	> 100 µM	> 100 µM	> 100 µM	> 100 µM
CCN(CC)CCCC(C)Nc1ccnc2cc(Cl)c(SCc3ccccc3)cc12 (stereo not drawn)	1.35 µM	2.95 µM	1.43 µM	3.96 µM	1.85 µM	3.59 µM	0.512 µM	1.6 µM	0.928 µM	2.92 µM	1.81 µM	4.95 µM	1.22 µM	2.68 µM	0.633 µM	2.93 µM	0.626 µM	2.04 µM	1.64 µM	3.22 µM
O=CNc1ccc2c(c1)Cc1cc([N+](=O)[O-])ccc1-2	3.38 µM	> 100 µM	0.715 µM	> 100 µM	5.75 µM	> 77.4 µM	10.2 µM	> 100 µM	2.05 µM	> 100 µM	3.95 µM	> 100 µM	2.02 µM	> 58.1 µM	> 100 µM	> 100 µM	4.14 µM	> 100 µM	3.58 µM	> 100 µM
CCNCCNc1cc(C2CCCC2)c(C#N)c2nc3ccccc3n12	1.67 µM	3.18 µM	4.64 µM	16.6 µM	3.59 µM	8.22 µM	1.84 µM	5.14 µM	2.82 µM	13.2 µM	3.5 µM	16 µM	2.67 µM	8.32 µM	2.69 µM	7.35 µM	1.67 µM	3.25 µM	3.91 µM	16.1 µM
CC(C)CC1NC(=O)C(CCCN)NC(=O)C(C(C)C)NC(=O)C2CCCN2C(=O)C(Cc2ccccc2)NC(=O)C(CC(C)C)NC(=O)C(CCCN)NC(=O)C(C(C)C)NC(=O)C2CCCN2C(=O)C(Cc2ccccc2)NC1=O (stereo not drawn) (cyclo(FPV[Orn]LFPV[Orn]L); configuration not given here)	0.599 µM and 1.64 µM	3.61 µM and 6.37 µM	0.00513 µM	0.363 µM and 1.04 µM	0.00914 µM and 0.0162 µM	0.149 µM and 1.09 µM	0.0213 µM and 0.104 µM	1.51 µM and 5.71 µM	0.0123 µM and 0.0239 µM	0.422 µM and 1.17 µM	0.18 µM and 0.228 µM	4.69 µM and 3.75 µM	0.092 µM and 0.106 µM	0.743 µM and 0.632 µM	< 0.00325 µM and 0.0114 µM	0.0309 µM and 0.185 µM	0.0146 µM and 0.0477 µM	0.421 µM and 1.05 µM	0.00939 µM and 0.0243 µM	0.0404 µM and 0.0891 µM
COc1ccc(-c2oncc2-c2cc(OC)c3c(c2)OCO3)cc1	4.46 µM	55.9 µM	2.66 µM	> 82.2 µM	3.58 µM	> 100 µM	7.3 µM	> 100 µM	1.18 µM	> 100 µM	3.9 µM	> 65.7 µM	1.49 µM	7.4 µM	3.93 µM	> 39.5 µM	2 µM	5.92 µM	2.88 µM	> 29.5 µM
